Like-named read-outs stand apart in the source and are kept apart here.
Tests used:
[1] = test system: gliosarcoma (SF-539); experiment: NCI 60 five dose screen
[2] = test system: HCT-15 (Colon Cancer); experiment: NCI 60 one dose screen; assay type: cell-based, human
[3] = test system: SF-295; experiment: NCI 60 one dose screen; assay type: cell-based, human; conditions: one dose; CNS Cancer; SF-295
[4] = test system: 60 different human tumor cell lines; experiment: cells

## C[C@]12CC[C@H]3[C@@H](CC=C4c5sc(Nc6ccccc6)nc5CC[C@@]43C)[C@@H]1CC[C@@H]2O [IIIa.10, (1S,2R,13R,14S,17S,18S)-7-anilino-2,18-dimethyl-8-thia-6-azapentacyclo[11.7.0.02,10.05,9.014,18]icosa-5(9),6,10-trien-17-ol]
[1]; Homo sapiens, SF-539
  GI50: 1190 nM
[1]; Homo sapiens, SF-539, read-out: LC50
  CC50: 5740 nM
[1]; SF-539 (CNS Cancer), five dose
  TGI: 2.62E−6
[2]
  Growth Percent: −30.18%
[3]
  Growth Percent: 7.36%
[4]; 60 cell
  GI50: 2370 nM
[4]; 60 cell, read-out: LC50
  CC50: 38400 nM
[4]; 786-0
  GI50: 1220 nM
[4]; 786-0, read-out: LC50
  CC50: 8870 nM
[4]; A498
  GI50: 2160 nM
[4]; A498, read-out: LC50
  CC50: 20700 nM
[4]; A549
  GI50: 2410 nM
[4]; A549, read-out: LC50
  CC50: 46200 nM
[4]; ACHN
  GI50: 1710 nM
[4]; ACHN, read-out: LC50
  CC50: 6190 nM
[4]; BT-549
  GI50: 1380 nM
[4]; BT-549, read-out: LC50
  CC50: 32600 nM
[4]; CAKI-1
  GI50: 2320 nM
[4]; CAKI-1, read-out: LC50
  CC50: 19200 nM
[4]; CCRF-CEM
  GI50: 1600 nM
[4]; CCRF-CEM, read-out: LC50
  CC50: > 100000 nM
[4]; COLO 205
  GI50: 2450 nM
[4]; COLO 205, read-out: LC50
  CC50: 50800 nM
[4]; DU-145
  GI50: 1700 nM
[4]; DU-145, read-out: LC50
  CC50: 7680 nM
[4]; EKVX
  GI50: 2750 nM
[4]; EKVX, read-out: LC50
  CC50: 63800 nM
[4]; HCC 2998
  GI50: 1970 nM
[4]; HCC 2998, read-out: LC50
  CC50: 6420 nM
[4]; HCT-15
  GI50: 1600 nM
[4]; HCT-15, read-out: LC50
  CC50: 30600 nM
[4]; HCT-116
  GI50: 1510 nM
[4]; HCT-116, read-out: LC50
  CC50: 6010 nM
[4]; HL-60
  GI50: 2020 nM
[4]; HL-60, read-out: LC50
  CC50: > 100000 nM
[4]; HOP-62
  GI50: 2470 nM
[4]; HOP-62, read-out: LC50
  CC50: > 100000 nM
[4]; HOP-92
  GI50: 2840 nM
[4]; HOP-92, read-out: LC50
  CC50: 27400 nM
[4]; HT-29
  GI50: 2130 nM
[4]; Hs-578T
  GI50: 2160 nM
[4]; Hs-578T, read-out: LC50
  CC50: > 100000 nM
[4]; IGROV-1
  GI50: 2780 nM
[4]; IGROV-1, read-out: LC50
  CC50: > 100000 nM
[4]; K562
  GI50: 2450 nM
[4]; K562, read-out: LC50
  CC50: > 100000 nM
[4]; KM12
  GI50: 1680 nM
[4]; KM12, read-out: LC50
  CC50: 5770 nM
[4]; LOX IMVI
  GI50: 1330 nM
[4]; LOX IMVI, read-out: LC50
  CC50: 5780 nM
[4]; M14
  GI50: 1840 nM
[4]; M14, read-out: LC50
  CC50: 9900 nM
[4]; MCF7
  GI50: 1800 nM
[4]; MCF7, read-out: LC50
  CC50: > 100000 nM
[4]; MDA-MB-231
  GI50: 1990 nM
[4]; MDA-MB-231, read-out: LC50
  CC50: 12800 nM
[4]; MDA-MB-435
  GI50: 2250 nM
[4]; MDA-MB-435, read-out: LC50
  CC50: 29700 nM
[4]; MDA-MB-468
  GI50: 1720 nM
[4]; MDA-MB-468, read-out: LC50
  CC50: 6660 nM
[4]; MOLT-4
  GI50: 1870 nM
[4]; MOLT-4, read-out: LC50
  CC50: > 100000 nM
[4]; Malme-3M
  GI50: 2190 nM
[4]; Malme-3M, read-out: LC50
  CC50: 21900 nM
[4]; NCI-H23
  GI50: 2030 nM
[4]; NCI-H23, read-out: LC50
  CC50: 23700 nM
[4]; NCI-H226
  GI50: 2400 nM
[4]; NCI-H226, read-out: LC50
  CC50: > 100000 nM
[4]; NCI-H322M
  GI50: 2880 nM
[4]; NCI-H322M, read-out: LC50
  CC50: 35200 nM
[4]; NCI-H460
  GI50: 1950 nM
[4]; NCI-H460, read-out: LC50
  CC50: 8370 nM
[4]; NCI-H522
  GI50: 1900 nM
[4]; NCI-H522, read-out: LC50
  CC50: 14300 nM
[4]; NCI/ADR-RES
  GI50: 3390 nM
[4]; NCI/ADR-RES, read-out: LC50
  CC50: > 100000 nM
[4]; OVCAR-3
  GI50: 1280 nM
[4]; OVCAR-3, read-out: LC50
  CC50: 5370 nM
[4]; OVCAR-4
  GI50: 3130 nM
[4]; OVCAR-4, read-out: LC50
  CC50: 56800 nM
[4]; OVCAR-5
  GI50: 2680 nM
[4]; OVCAR-5, read-out: LC50
  CC50: 34000 nM
[4]; OVCAR-8
  GI50: 3430 nM
[4]; OVCAR-8, read-out: LC50
  CC50: 93700 nM
[4]; RXF 393
  GI50: 798 nM
[4]; RXF 393, read-out: LC50
  CC50: 5810 nM
[4]; SF-268
  GI50: 1660 nM
[4]; SF-268, read-out: LC50
  CC50: 6620 nM
[4]; SK-MEL-2
  GI50: 2510 nM

From patent US20250296953A1, “3,4-THIAZOLO-STEROIDS AND METHODS OF MAKING AND USING THE SAME” (Arkansas State University - Jonesboro, priority 2018, published 2025)
